The record followed here is ChEMBL document CHEMBL5143607, “Discovery and structure-activity relationships of a novel oxazolidinone class of bacterial type II topoisomerase inhibitors” (Bioorg Med Chem Lett, 2022).

Each structure is given as a SMILES string. Values after ≈ are worked out from the molar mass of the structure shown.

Sequence of Voltage-gated inwardly rectifying potassium channel KCNH2 (Q12809 whole entry): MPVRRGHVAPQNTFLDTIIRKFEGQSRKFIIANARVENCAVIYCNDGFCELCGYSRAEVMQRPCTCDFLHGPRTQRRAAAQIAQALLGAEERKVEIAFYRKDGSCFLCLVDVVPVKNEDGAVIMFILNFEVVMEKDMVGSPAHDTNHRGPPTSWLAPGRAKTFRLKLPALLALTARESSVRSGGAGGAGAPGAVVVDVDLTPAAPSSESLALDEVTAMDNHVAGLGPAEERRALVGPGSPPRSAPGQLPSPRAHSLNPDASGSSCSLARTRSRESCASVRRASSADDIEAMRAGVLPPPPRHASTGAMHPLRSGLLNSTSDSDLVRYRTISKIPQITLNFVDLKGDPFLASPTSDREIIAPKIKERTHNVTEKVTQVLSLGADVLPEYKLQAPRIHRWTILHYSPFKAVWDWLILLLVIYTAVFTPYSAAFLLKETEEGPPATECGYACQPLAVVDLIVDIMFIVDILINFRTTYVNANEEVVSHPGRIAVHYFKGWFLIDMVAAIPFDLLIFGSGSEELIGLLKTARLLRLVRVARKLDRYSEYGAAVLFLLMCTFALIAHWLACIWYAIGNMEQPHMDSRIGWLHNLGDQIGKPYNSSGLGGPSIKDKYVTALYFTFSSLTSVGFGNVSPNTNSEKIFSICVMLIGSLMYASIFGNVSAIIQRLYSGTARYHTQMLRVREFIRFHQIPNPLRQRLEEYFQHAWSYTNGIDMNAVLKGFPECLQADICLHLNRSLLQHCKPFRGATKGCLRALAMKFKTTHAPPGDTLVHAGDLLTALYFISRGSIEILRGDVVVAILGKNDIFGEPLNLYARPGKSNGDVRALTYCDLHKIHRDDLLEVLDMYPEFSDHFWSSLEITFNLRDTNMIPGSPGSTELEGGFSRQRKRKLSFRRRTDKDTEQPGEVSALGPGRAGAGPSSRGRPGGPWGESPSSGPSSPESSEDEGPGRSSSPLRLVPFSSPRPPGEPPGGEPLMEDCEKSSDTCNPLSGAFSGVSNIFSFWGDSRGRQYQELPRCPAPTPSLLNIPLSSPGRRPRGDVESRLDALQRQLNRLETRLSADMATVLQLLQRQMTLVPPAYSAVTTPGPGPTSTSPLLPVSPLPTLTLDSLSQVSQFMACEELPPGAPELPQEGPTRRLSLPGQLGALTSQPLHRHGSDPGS

Test system in one data set: not listed separately
In words: Cytotoxicity against human HepG2 cells assessed as reduction in cell viability for 24 hrs by Celltiter-Glo assay. It is filed as toxicity, cell-based.
Conditions: not given
Consider `N#Cc1cnc2ccc(=O)n(CCCN[C@H]3CC[C@H]4[C@H](C3)OC(=O)N4c3ccc4c(n3)NC(=O)CO4)c2c1`, for which the IC50 at 24 h was more than 32 µg/mL.

Consider `COc1cnc2ccc(=O)n(CCCN[C@H]3CC[C@H]4[C@H](C3)OC(=O)N4c3ccc4c(n3)NC(=O)CO4)c2c1`, for which the IC50 at 24 h was more than 64 µg/mL.

For the compound `N#Cc1ccc2ccc(=O)n(CCN[C@H]3CC[C@H]4[C@H](C3)OC(=O)N4c3ccc4c(n3)NC(=O)CO4)c2c1`, the IC50 at 24 h is more than 128 µg/mL.

The test system of another data set is Escherichia coli. In words: Antibacterial activity against Escherichia coli W4573 assessed as bacterial growth inhibition by CLSI protocol based assay. The data set is classed as functional.
Conditions: not given
In the case of `N#Cc1cnc2ccc(=O)n(CCCN[C@H]3CC[C@H]4[C@H](C3)OC(=O)N4c3ccc4c(n3)NC(=O)CO4)c2c1`, the MIC came out at 0.25 µg/mL (≈ 0.485 µM).

For the compound `COc1cnc2ccc(=O)n(CCCN[C@H]3CC[C@H]4[C@H](C3)OC(=O)N4c3ccc4c(n3)NC(=O)CO4)c2c1`, the MIC was found to be 0.25 µg/mL (≈ 0.48 µM).

For `N#Cc1ccc2ccc(=O)n(CCN[C@H]3CC[C@H]4[C@H](C3)OC(=O)N4c3ccc4c(n3)NC(=O)CO4)c2c1`, the MIC is 0.03 µg/mL (≈ 0.0599 µM).

The target of a further data set is DNA gyrase (Escherichia coli, UniProt P0AES4+P0AES6). Kind of data set: Inhibition of Escherichia coli DNA gyrase supercoiling activity. It is filed as protein-complex assay.
Conditions: not given
The compound `N#Cc1cnc2ccc(=O)n(CCCN[C@H]3CC[C@H]4[C@H](C3)OC(=O)N4c3ccc4c(n3)NC(=O)CO4)c2c1` yielded an IC50 of 0.34 µM.

Take `COc1cnc2ccc(=O)n(CCCN[C@H]3CC[C@H]4[C@H](C3)OC(=O)N4c3ccc4c(n3)NC(=O)CO4)c2c1`: the IC50 is 0.46 µM.

On to `N#Cc1ccc2ccc(=O)n(CCN[C@H]3CC[C@H]4[C@H](C3)OC(=O)N4c3ccc4c(n3)NC(=O)CO4)c2c1`, for which half-maximal inhibition (IC50) was put at 0.03 µM.

Test system in the next data set: not listed separately
In words: Intrinsic clearance in mouse liver microsomes in presence of NADPH and measured upto 45 mins. The data set is classed as ADME, Microsome. Conditions: read-out: CLH.
As to `N#Cc1cnc2ccc(=O)n(CCCN[C@H]3CC[C@H]4[C@H](C3)OC(=O)N4c3ccc4c(n3)NC(=O)CO4)c2c1`, the microsomal CLint was less than 3 µL/min/mg.

As for `COc1cnc2ccc(=O)n(CCCN[C@H]3CC[C@H]4[C@H](C3)OC(=O)N4c3ccc4c(n3)NC(=O)CO4)c2c1`, the microsomal CLint turned out to be 9 µL/min/mg.

With `N#Cc1ccc2ccc(=O)n(CCN[C@H]3CC[C@H]4[C@H](C3)OC(=O)N4c3ccc4c(n3)NC(=O)CO4)c2c1`, the microsomal CLint amounted to 125 µL/min/mg.

A further data set concerns Pseudomonas aeruginosa. Kind of data set: Antibacterial activity against Pseudomonas aeruginosa ATCC 27853 assessed as bacterial growth inhibition by CLSI protocol based assay. The data set is classed as functional.
Conditions: not given
On to `N#Cc1cnc2ccc(=O)n(CCCN[C@H]3CC[C@H]4[C@H](C3)OC(=O)N4c3ccc4c(n3)NC(=O)CO4)c2c1`, for which the MIC amounted to 2 µg/mL (≈ 3.88 µM).

For the compound `COc1cnc2ccc(=O)n(CCCN[C@H]3CC[C@H]4[C@H](C3)OC(=O)N4c3ccc4c(n3)NC(=O)CO4)c2c1`, the MIC was found to be 2 µg/mL (≈ 3.84 µM).

`N#Cc1ccc2ccc(=O)n(CCN[C@H]3CC[C@H]4[C@H](C3)OC(=O)N4c3ccc4c(n3)NC(=O)CO4)c2c1`: the MIC amounted to 2 µg/mL (≈ 4 µM).

The next data set has as its system Escherichia coli. In words: Resistance development in Escherichia coli ATCC25922 assessed as spontaneous resistance frequency at 4 times MIC by resistance development assay. The data set is classed as functional.
Conditions: not given
In the case of `N#Cc1cnc2ccc(=O)n(CCCN[C@H]3CC[C@H]4[C@H](C3)OC(=O)N4c3ccc4c(n3)NC(=O)CO4)c2c1`, the Activity is 7.8 10^-8No_unit.

As to `COc1cnc2ccc(=O)n(CCCN[C@H]3CC[C@H]4[C@H](C3)OC(=O)N4c3ccc4c(n3)NC(=O)CO4)c2c1`, the Activity is on record as 3.2 10^-7No_unit.

Turning to `N#Cc1ccc2ccc(=O)n(CCN[C@H]3CC[C@H]4[C@H](C3)OC(=O)N4c3ccc4c(n3)NC(=O)CO4)c2c1`, the Activity is on record as <7.1 10^-9No_unit.

Another data set relates to Klebsiella pneumoniae. In words: Antibacterial activity against Klebsiella pneumoniae ATCC 700603 assessed as bacterial growth inhibition by CLSI protocol based assay. The data set is classed as functional.
Conditions: not given
`N#Cc1cnc2ccc(=O)n(CCCN[C@H]3CC[C@H]4[C@H](C3)OC(=O)N4c3ccc4c(n3)NC(=O)CO4)c2c1`: the MIC worked out at 8 µg/mL (≈ 15.5 µM).

Take `COc1cnc2ccc(=O)n(CCCN[C@H]3CC[C@H]4[C@H](C3)OC(=O)N4c3ccc4c(n3)NC(=O)CO4)c2c1`: the MIC turned out to be 8 µg/mL (≈ 15.4 µM).

Consider `N#Cc1ccc2ccc(=O)n(CCN[C@H]3CC[C@H]4[C@H](C3)OC(=O)N4c3ccc4c(n3)NC(=O)CO4)c2c1`, for which the minimum inhibitory concentration (MIC) turned out to be 2 µg/mL (≈ 4 µM).

Test system in the next data set: not listed separately
Kind of data set: Kinetic solubility of compound. The data set is classed as physicochemical. Conditions: read-out: Kinetic_solubility.
Consider `N#Cc1cnc2ccc(=O)n(CCCN[C@H]3CC[C@H]4[C@H](C3)OC(=O)N4c3ccc4c(n3)NC(=O)CO4)c2c1`, for which the solubility kinetic is 86 µM (≈ 44.3 µg/mL).

In the case of `COc1cnc2ccc(=O)n(CCCN[C@H]3CC[C@H]4[C@H](C3)OC(=O)N4c3ccc4c(n3)NC(=O)CO4)c2c1`, the solubility kinetic is more than 100 µM.

As for `N#Cc1ccc2ccc(=O)n(CCN[C@H]3CC[C@H]4[C@H](C3)OC(=O)N4c3ccc4c(n3)NC(=O)CO4)c2c1`, the solubility kinetic is 62 µM (≈ 31 µg/mL).

A further data set relates to Acinetobacter baumannii. In words: Antibacterial activity against Acinetobacter baumannii NCTC 13420 assessed as bacterial growth inhibition by CLSI protocol based assay. The data set is classed as functional.
Conditions: not given
For the compound `N#Cc1cnc2ccc(=O)n(CCCN[C@H]3CC[C@H]4[C@H](C3)OC(=O)N4c3ccc4c(n3)NC(=O)CO4)c2c1`, the MIC was 2 µg/mL (≈ 3.88 µM).

For the compound `COc1cnc2ccc(=O)n(CCCN[C@H]3CC[C@H]4[C@H](C3)OC(=O)N4c3ccc4c(n3)NC(=O)CO4)c2c1`, the MIC was found to be 0.5 µg/mL (≈ 0.961 µM).

As to `N#Cc1ccc2ccc(=O)n(CCN[C@H]3CC[C@H]4[C@H](C3)OC(=O)N4c3ccc4c(n3)NC(=O)CO4)c2c1`, the MIC stood at 0.25 µg/mL (≈ 0.499 µM).

Test system in the next data set: not listed separately
Kind of data set: Inhibition of Escherichia coli topoisomerase 4 assessed as reduction in decatenation.
Conditions: not given
As to `N#Cc1cnc2ccc(=O)n(CCCN[C@H]3CC[C@H]4[C@H](C3)OC(=O)N4c3ccc4c(n3)NC(=O)CO4)c2c1`, the IC50 is 4.24 µM.

`COc1cnc2ccc(=O)n(CCCN[C@H]3CC[C@H]4[C@H](C3)OC(=O)N4c3ccc4c(n3)NC(=O)CO4)c2c1`: the IC50 turned out to be 0.015 µM.

As to `N#Cc1ccc2ccc(=O)n(CCN[C@H]3CC[C@H]4[C@H](C3)OC(=O)N4c3ccc4c(n3)NC(=O)CO4)c2c1`, the half-maximal inhibitory concentration (IC50) was found to be 0.23 µM.

Test system in the next data set: not listed separately
Kind of data set: Lipophilicity, logD of the compound by shake flask assay. Conditions: octanol/water. It is filed as physicochemical.
In turn, `N#Cc1cnc2ccc(=O)n(CCCN[C@H]3CC[C@H]4[C@H](C3)OC(=O)N4c3ccc4c(n3)NC(=O)CO4)c2c1` displayed a logD of 0.5.

`COc1cnc2ccc(=O)n(CCCN[C@H]3CC[C@H]4[C@H](C3)OC(=O)N4c3ccc4c(n3)NC(=O)CO4)c2c1` registered a pH-dependent lipophilicity (logD) of 0.94.

`N#Cc1ccc2ccc(=O)n(CCN[C@H]3CC[C@H]4[C@H](C3)OC(=O)N4c3ccc4c(n3)NC(=O)CO4)c2c1` gave a logD of 1.51.

A further data set deals with DNA topoisomerase 2-alpha (Homo sapiens, UniProt P11388). Kind of data set: Inhibition of human topoisomerase 2 assessed as reduction in decatenation.
Sequence of DNA topoisomerase 2-alpha (P11388 whole entry): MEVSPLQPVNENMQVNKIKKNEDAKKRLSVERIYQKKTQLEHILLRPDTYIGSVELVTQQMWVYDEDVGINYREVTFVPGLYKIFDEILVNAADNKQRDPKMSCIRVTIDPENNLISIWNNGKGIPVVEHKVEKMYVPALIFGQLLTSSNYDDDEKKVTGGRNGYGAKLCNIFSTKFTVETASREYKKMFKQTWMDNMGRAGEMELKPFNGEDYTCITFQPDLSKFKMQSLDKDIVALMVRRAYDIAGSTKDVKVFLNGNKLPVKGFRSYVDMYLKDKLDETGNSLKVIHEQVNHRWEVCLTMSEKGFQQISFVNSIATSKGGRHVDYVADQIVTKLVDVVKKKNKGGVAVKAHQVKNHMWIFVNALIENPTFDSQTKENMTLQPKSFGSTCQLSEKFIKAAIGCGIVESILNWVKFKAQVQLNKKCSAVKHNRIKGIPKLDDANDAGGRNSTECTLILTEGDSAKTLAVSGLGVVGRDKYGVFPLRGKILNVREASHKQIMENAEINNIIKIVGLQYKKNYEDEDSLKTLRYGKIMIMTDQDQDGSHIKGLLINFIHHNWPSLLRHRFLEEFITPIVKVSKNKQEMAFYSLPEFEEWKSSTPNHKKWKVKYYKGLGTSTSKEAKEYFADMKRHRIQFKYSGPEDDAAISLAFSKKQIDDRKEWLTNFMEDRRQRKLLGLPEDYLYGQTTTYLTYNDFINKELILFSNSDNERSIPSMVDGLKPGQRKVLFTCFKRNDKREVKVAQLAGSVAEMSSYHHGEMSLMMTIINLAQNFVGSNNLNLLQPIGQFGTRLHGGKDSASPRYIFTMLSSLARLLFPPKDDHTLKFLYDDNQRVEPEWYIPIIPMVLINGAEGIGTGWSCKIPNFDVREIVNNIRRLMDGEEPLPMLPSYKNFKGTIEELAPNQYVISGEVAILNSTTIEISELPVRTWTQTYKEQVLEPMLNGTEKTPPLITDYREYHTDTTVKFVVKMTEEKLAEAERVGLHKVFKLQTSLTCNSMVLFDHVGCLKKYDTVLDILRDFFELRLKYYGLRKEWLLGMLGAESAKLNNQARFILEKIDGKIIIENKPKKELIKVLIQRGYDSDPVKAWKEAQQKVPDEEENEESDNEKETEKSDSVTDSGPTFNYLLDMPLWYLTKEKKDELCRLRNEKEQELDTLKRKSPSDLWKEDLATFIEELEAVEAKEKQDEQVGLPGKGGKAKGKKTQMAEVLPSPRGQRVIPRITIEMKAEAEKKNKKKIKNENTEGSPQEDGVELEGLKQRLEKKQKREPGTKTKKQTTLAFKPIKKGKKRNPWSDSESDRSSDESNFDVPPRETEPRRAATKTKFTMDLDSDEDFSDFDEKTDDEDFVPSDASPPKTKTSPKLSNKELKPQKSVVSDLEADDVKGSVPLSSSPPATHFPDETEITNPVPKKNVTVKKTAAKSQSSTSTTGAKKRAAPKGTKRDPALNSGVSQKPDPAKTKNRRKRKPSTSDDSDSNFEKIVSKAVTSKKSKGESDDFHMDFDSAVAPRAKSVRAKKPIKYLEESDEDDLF
Conditions: not given
Take `N#Cc1cnc2ccc(=O)n(CCCN[C@H]3CC[C@H]4[C@H](C3)OC(=O)N4c3ccc4c(n3)NC(=O)CO4)c2c1`: the IC50 is more than 100 µM.

In the case of `COc1cnc2ccc(=O)n(CCCN[C@H]3CC[C@H]4[C@H](C3)OC(=O)N4c3ccc4c(n3)NC(=O)CO4)c2c1`, the IC50 was more than 100 µM.

For `N#Cc1ccc2ccc(=O)n(CCN[C@H]3CC[C@H]4[C@H](C3)OC(=O)N4c3ccc4c(n3)NC(=O)CO4)c2c1`, the IC50 amounted to 72.8 µM.

The next data set relates to Escherichia coli. Kind of data set: Antibacterial activity against Escherichia coli ATCC25922 assessed as bacterial growth inhibition by CLSI protocol based assay. The data set is classed as functional.
Conditions: not given
On to `N#Cc1ccc2ccc(=O)n(CCN[C@H]3CC[C@H]4[C@H](C3)OC(=O)N4c3ccc4c(n3)NC(=O)CO4)c2c1`, for which the MIC was 0.25 µg/mL (≈ 0.499 µM).

Test system in a further data set: not listed separately
Kind of data set: Plasma protein binding in mouse assessed as free fraction by equilibrium dialysis assay. The data set is classed as ADME, cell-free.
Conditions: not given
With `N#Cc1cnc2ccc(=O)n(CCCN[C@H]3CC[C@H]4[C@H](C3)OC(=O)N4c3ccc4c(n3)NC(=O)CO4)c2c1`, the fraction unbound is more than 0.3.

In the case of `COc1cnc2ccc(=O)n(CCCN[C@H]3CC[C@H]4[C@H](C3)OC(=O)N4c3ccc4c(n3)NC(=O)CO4)c2c1`, the fraction unbound is more than 0.3.

With `N#Cc1ccc2ccc(=O)n(CCN[C@H]3CC[C@H]4[C@H](C3)OC(=O)N4c3ccc4c(n3)NC(=O)CO4)c2c1`, the fraction unbound was more than 0.3.

Another data set deals with Staphylococcus aureus. Kind of data set: Antibacterial activity against Staphylococcus aureus ATCC 29213 assessed as bacterial growth inhibition by CLSI protocol based assay.
Conditions: not given
The data set is classed as functional.
With `N#Cc1cnc2ccc(=O)n(CCCN[C@H]3CC[C@H]4[C@H](C3)OC(=O)N4c3ccc4c(n3)NC(=O)CO4)c2c1`, the MIC was 0.5 µg/mL (≈ 0.97 µM).

On to `COc1cnc2ccc(=O)n(CCCN[C@H]3CC[C@H]4[C@H](C3)OC(=O)N4c3ccc4c(n3)NC(=O)CO4)c2c1`, for which the MIC was found to be 0.06 µg/mL (≈ 0.115 µM).

Consider `N#Cc1ccc2ccc(=O)n(CCN[C@H]3CC[C@H]4[C@H](C3)OC(=O)N4c3ccc4c(n3)NC(=O)CO4)c2c1`, for which the minimum inhibitory concentration (MIC) was 0.03 µg/mL (≈ 0.0599 µM).

The next data set has as its system Escherichia coli. In words: Antibacterial activity against Escherichia coli N43 assessed as bacterial growth inhibition by CLSI protocol based assay.
Conditions: not given
The data set is classed as functional.
Consider `N#Cc1cnc2ccc(=O)n(CCCN[C@H]3CC[C@H]4[C@H](C3)OC(=O)N4c3ccc4c(n3)NC(=O)CO4)c2c1`, for which the MIC was 0.015 µg/mL (≈ 0.0291 µM).

`COc1cnc2ccc(=O)n(CCCN[C@H]3CC[C@H]4[C@H](C3)OC(=O)N4c3ccc4c(n3)NC(=O)CO4)c2c1`: the MIC amounted to 0.008 µg/mL (≈ 0.0154 µM).

Regarding `N#Cc1ccc2ccc(=O)n(CCN[C@H]3CC[C@H]4[C@H](C3)OC(=O)N4c3ccc4c(n3)NC(=O)CO4)c2c1`, the MIC was not above 0.002 µg/mL.

The next data set addresses Voltage-gated inwardly rectifying potassium channel KCNH2 (Homo sapiens, UniProt Q12809). Kind of data set: Inhibition of human ERG by Ionworks electrophysiology assay. It is filed as toxicity.
Conditions: not given
The compound `N#Cc1cnc2ccc(=O)n(CCCN[C@H]3CC[C@H]4[C@H](C3)OC(=O)N4c3ccc4c(n3)NC(=O)CO4)c2c1` showed an IC50 of more than 100 µM.

In turn, `COc1cnc2ccc(=O)n(CCCN[C@H]3CC[C@H]4[C@H](C3)OC(=O)N4c3ccc4c(n3)NC(=O)CO4)c2c1` registered an IC50 of more than 100 µM.

`N#Cc1ccc2ccc(=O)n(CCN[C@H]3CC[C@H]4[C@H](C3)OC(=O)N4c3ccc4c(n3)NC(=O)CO4)c2c1`: the IC50 is more than 100 µM.

Test system in the next data set: not listed separately
In words: Intrinsic clearance in human liver microsomes in presence of NADPH and measured upto 45 mins. It is filed as ADME, Microsome. Particulars: read-out: CLH.
Turning to `N#Cc1cnc2ccc(=O)n(CCCN[C@H]3CC[C@H]4[C@H](C3)OC(=O)N4c3ccc4c(n3)NC(=O)CO4)c2c1`, the microsomal CLint was less than 3 µL/min/mg.

For `COc1cnc2ccc(=O)n(CCCN[C@H]3CC[C@H]4[C@H](C3)OC(=O)N4c3ccc4c(n3)NC(=O)CO4)c2c1`, the microsomal CLint is less than 3 µL/min/mg.

Regarding `N#Cc1ccc2ccc(=O)n(CCN[C@H]3CC[C@H]4[C@H](C3)OC(=O)N4c3ccc4c(n3)NC(=O)CO4)c2c1`, the microsomal CLint was 59 µL/min/mg.
